# Laboratory results reported in US12643867B2, “Compositions and uses thereof” (University of Virginia Patent Foundation, priority 2017, dated 2026).
# Columns and labels:
# Format in all cases: binding
# [1] = target: T1, FER (Homo sapiens, UniProt P16591); assay: ATP acyl phosphate chemical proteomics in lung cancer cell proteomes; conditions: 100 μM; A549 and H82 proteomes
# T1 construct: measure selectivity of compounds against native kinases detected in lung cancer proteomes; endogenous in cells; host or cells: A549 and H82 lung cancer cell proteomes
# Method: (§1) LC-MS analysis of SILAC samples using ATP acyl phosphates. Quantitative chemoproteomics was performed as previously described (Franks et al., 2017; McCloud et al., 2018).
# (§2) Computational Methods. Data for A549 and H82 cell lines were searched with IP2 and manually validated using the methods previously described (Franks et al., 2017). Data for Desthiobiotin-tagged ATP acyl-phosphate probes and ATP competitive peptides were compared and clustered. Ritanserin and ketanserin inhibition profiles were compared using SILAC ratios and normalized to DMSO.
# (§3) Based on previous chemical proteomics (Franks, 2017), it was hypothesized that ritanserin is functioning as a kinase inhibitor to mediate cytotoxicity in the lung cancer cell models. […] For these studies, NSCLC and SCLC cells were cultured in isotopically light and heavy amino acids to enable quantitative chemical proteomics (Chang. 2015) by stable isotope labeling with amino acids in cell culture (SILAC, FIG. 17A). […] After probe labeling, light and heavy proteomes were combined, digested with trypsin protease, and desthiobiotin-modified peptides enriched by avidin affinity chromatography and analyzed by LC-MS/MS to identify and quantify isotopically tagged active-site peptides from native kinases as previously described(Franks, 2017) (FIG. 17A).
# [2] = target: T2, TLK2 (Homo sapiens, UniProt Q86UE8); assay: as above; conditions: 100 μM; A549 and H82 proteomes
# T2 construct: measure selectivity of compounds against native kinases detected in lung cancer proteomes; endogenous in cells; host or cells: A549 and H82 lung cancer cell proteomes
# Method: as §1, §2, §3
# [3] = target: T3, ARAF (Homo sapiens, UniProt P10398); assay: ATP acyl phosphate chemical proteomics in lung cancer cell proteomes (targeted PRM); conditions: H82 proteomes
# T3 construct: measure selectivity of compounds against native kinases detected in lung cancer proteomes; endogenous in cells; host or cells: H82 (and A549) cell proteomes
# Method: as §1
# To further confirm that ritanserin is a CRAF inhibitor, a targeted parallel reaction monitoring method (PRM) was developed to evaluate compound activity against CRAF and other members of the RAF family (ARAF and BRAF). Targeted PRM was needed because of the low abundance of CRAF compared with ARAF and BRAF). […] Ritanserin activity was also measured against RAF kinases in A549 proteomes using the targeted LC-MS method. […] The data further support previous findings that this RAF member is enriched in SCLC cells (REF).
# T2 sequence (Q86UE8 whole entry): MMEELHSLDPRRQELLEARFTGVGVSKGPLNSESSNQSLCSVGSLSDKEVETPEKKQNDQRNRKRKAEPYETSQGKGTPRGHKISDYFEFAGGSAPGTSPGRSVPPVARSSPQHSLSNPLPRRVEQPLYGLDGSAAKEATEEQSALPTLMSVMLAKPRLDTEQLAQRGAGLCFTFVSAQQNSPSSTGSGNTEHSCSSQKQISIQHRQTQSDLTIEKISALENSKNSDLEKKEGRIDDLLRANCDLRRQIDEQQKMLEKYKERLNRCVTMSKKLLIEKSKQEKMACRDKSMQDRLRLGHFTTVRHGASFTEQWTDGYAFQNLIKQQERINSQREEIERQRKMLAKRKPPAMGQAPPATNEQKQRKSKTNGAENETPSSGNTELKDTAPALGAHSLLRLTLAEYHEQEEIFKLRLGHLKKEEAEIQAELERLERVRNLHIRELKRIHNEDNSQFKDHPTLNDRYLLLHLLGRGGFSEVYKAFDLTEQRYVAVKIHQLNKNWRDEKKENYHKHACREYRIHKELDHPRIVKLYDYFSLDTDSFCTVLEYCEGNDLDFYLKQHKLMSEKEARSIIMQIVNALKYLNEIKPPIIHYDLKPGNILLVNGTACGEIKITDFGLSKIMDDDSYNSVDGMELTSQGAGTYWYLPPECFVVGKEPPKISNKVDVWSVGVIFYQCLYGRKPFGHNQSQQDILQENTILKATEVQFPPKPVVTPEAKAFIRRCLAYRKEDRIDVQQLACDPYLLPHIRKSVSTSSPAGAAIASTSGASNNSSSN
# T1 sequence (P16591 whole entry): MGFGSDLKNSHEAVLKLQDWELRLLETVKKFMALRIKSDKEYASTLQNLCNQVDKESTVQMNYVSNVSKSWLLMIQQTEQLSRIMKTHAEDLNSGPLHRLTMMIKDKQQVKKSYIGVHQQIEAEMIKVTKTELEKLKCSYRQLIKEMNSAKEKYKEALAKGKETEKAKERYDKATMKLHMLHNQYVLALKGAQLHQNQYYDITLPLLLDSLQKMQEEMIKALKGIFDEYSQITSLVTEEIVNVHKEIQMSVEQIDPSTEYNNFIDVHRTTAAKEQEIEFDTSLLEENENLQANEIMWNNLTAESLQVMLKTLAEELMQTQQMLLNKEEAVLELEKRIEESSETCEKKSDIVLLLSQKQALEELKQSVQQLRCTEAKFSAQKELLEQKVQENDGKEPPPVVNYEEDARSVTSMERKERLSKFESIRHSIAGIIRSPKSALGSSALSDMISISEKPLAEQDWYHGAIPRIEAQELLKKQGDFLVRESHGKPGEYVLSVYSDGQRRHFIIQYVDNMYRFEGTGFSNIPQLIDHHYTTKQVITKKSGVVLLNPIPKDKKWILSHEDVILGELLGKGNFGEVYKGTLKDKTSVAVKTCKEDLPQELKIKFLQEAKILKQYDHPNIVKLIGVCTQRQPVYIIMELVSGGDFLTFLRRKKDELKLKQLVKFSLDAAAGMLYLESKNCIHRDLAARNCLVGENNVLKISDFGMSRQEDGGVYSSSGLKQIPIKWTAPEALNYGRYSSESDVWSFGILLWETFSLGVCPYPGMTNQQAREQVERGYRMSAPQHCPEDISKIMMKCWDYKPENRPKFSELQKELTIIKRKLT
# T3 sequence (P10398 whole entry): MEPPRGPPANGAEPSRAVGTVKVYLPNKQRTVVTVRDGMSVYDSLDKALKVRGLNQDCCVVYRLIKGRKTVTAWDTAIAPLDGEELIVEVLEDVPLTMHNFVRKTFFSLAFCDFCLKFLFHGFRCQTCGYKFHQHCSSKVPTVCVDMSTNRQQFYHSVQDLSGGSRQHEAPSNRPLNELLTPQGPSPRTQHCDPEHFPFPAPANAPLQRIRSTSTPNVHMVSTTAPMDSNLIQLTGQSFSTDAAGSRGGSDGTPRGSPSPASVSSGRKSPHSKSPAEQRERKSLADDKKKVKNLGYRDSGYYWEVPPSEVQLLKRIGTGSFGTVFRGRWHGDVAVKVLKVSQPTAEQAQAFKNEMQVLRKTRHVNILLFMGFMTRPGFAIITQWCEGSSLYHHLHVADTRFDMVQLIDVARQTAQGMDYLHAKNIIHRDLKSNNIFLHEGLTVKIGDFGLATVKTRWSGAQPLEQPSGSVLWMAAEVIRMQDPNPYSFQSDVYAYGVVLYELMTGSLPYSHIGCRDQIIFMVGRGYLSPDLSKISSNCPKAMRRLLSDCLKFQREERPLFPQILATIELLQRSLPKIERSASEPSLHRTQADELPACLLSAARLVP
smiles,measurement,setting,value
Cc1nc2sccn2c(=O)c1CCN1CCC(=C(c2ccc(F)cc2)c2ccc(F)cc2)CC1 [Ritanserin],kinase target by SILAC ratio criterion,[1],most potent targets
same,kinase target by SILAC ratio criterion,[2],most potent targets
same,activity by targeted PRM,[3],negligible activity
